Values of other authors, collected in publication PMC9150182 (ACS Sensors, 2022).

How the values were obtained:
5-HT1A = target: T1, 5-HT1A (Homo sapiens, UniProt P08908); details: yeast, Gpa1/Gαi3 chimera
T1 sequence (P08908 1-422): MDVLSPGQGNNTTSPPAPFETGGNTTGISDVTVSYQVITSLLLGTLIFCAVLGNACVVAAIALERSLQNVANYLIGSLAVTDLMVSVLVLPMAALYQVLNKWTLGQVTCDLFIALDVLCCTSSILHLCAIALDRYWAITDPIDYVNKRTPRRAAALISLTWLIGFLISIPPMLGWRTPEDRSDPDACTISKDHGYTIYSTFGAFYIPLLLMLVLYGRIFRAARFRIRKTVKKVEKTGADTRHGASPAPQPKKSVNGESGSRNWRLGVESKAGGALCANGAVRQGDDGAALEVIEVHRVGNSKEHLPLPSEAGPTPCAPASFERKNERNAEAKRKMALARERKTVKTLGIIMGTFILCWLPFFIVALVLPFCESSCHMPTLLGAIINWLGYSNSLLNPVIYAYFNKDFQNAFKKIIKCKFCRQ

5-HT4 isoform g 302Y>F [1] = details: 302Y>F variant, COS7 cells
5-HT4 isoform g 302Y>F [2] = details: 302Y>F variant, COS7 cells; remark: listed apart in the source

Structure (SMILES) | increase over basal fluorescence after activation with serotonin (5-HT1A) [%] | effect of variant on serotonin-induced activity (5-HT4 isoform g 302Y>F [1]) | decrease of affinity to the receptor (5-HT4 isoform g 302Y>F [2]) [fold]
NCCc1c[nH]c2ccc(O)cc12 [serotonin] | 300 | did not affect serotonin-induced activity | 
Cn1cc(C(=O)OCC2CCN(CCNS(C)(=O)=O)CC2)c2ccccc21 [GR113808] |  |  | 13
